Data as given in patent publication US20160083380A1, “OXIMINO DERIVATIVES FOR THE TREATMENT OF DYSLIPIDEMIA” (CADILA HEALTHCARE LIMITED, priority 2013, published 2016).
Read-outs that look alike come from different tables or passages of the source.

Tested on: high fat diet C57 mice
Assay: LDL-C lowering activity in high fat diet C57 mice
Type: in vivo
Conditions: Mus musculus, po, 672 h, C57 mice on high fat diet, orally once a day, dose 30 mg (30 mpk), blood collected on day 28 of treatment
Protocol: LDL-C Lowering Activity—in High Fat Diet C57 Mice
The in-vivo LDL-c lowering for test compound was tested in C57 mice which were kept on high fat diet for 4 weeks and the blood was collected by retro-orbital sinus puncture method under light ether anesthesia on day 0 (pretreatment). Animal are grouped based on LDL-c levels, after that 4-6 week treatment with vehicle or test compound orally at a dose of 30 mpk dose once a day was given. On completion of treatment on day 28 of the treatment the blood was collected for LDL-c and TC levels measurement. The percent change in LDL-c and TC in test compound group Vs Vehicle group was calculated.

[1] = read-out: % Change Vs Vehicle Control LDL-c
[2] = read-out: % Change Vs Vehicle Control TC

Compound | change in vivo at 30 mg/kg [1] [%] | change in vivo at 30 mg/kg [2] [%]
C/C(=N\OCc1ccc(C(F)(F)F)cc1)c1ccc(OCc2nnn[nH]2)cc1 [Example 1, 1-(4-((1H-tetrazol-5-yl)methoxy)phenyl)ethanone O-(4-(trifluoromethyl)benzyl)oxime] | -50 ± 4 | -24 ± 4
C/C(=N\OCc1ccc(C(F)(F)F)cc1)c1ccc(OCc2nnn(C)n2)cc1 [Example 2, 1-(4-((2-Methyl-2H-tetrazol-5-yl)methoxy)phenyl)ethanone O-(4-(trifluoromethyl)benzyl)oxime] | -29 ± 6 | -14 ± 3
C/C(=N\OCc1ccc(C(F)(F)F)cc1)c1ccc(OCc2nnnn2C)cc1 [Example 3, 1-(4-((1-Methyl-H-tetrazol-5-yl)methoxy)phenyl)ethanone O-(4-(trifluoromethyl)benzyl)oxime] | -5 ± 8 | -1 ± 3
CC(=NOCc1ccc(C(F)(F)F)cc1)c1ccc(OCc2nnn[nH]2)nc1 [Example 4, 1-(6-((1H-tetrazol-5-yl)methoxy)pyridin-3-yl)ethanone O-(4-(trifluoromethyl)benzyl)oxime] | -66 ± 2 | -41 ± 4
C/C(=N\OCc1ccc(C(F)(F)F)cc1)c1ccc(OCc2cnn[nH]2)cc1 [Example 6, 1-(4-((1H-1,2,3-triazol-5-yl)methoxy)phenyl)ethanone O-(4-(trifluoromethyl)benzyl)oxime] | -30 ± 5 | -11 ± 2
C/C(=N\OCc1ccc(C(F)(F)F)cc1)c1ccc(OCc2nnc(C)o2)cc1 [Example 7, 1-(4-((5-Methyl-1,3,4-oxadiazol-2-yl)methoxy)phenyl)ethanone O-(4-(trifluoromethyl)benzyl)oxime] | -34 ± 7 | -10 ± 7
C/C(=N\OCc1ccc(C(F)(F)F)cc1)c1ccc(OCc2nnc(C)[nH]2)nc1 [Example 18, 1-(6-((5-Methyl-4H-1,2,4-triazol-3-yl)methoxy)pyridin-3-yl)ethanone O-(4-(trifluoromethyl)benzyl)oxime] | -23 ± 6 | -11 ± 3
C/C(=N\OCc1ccc(C(F)(F)F)cc1)c1ccc(OCc2nnc(N)o2)cc1 [Example 20, 1-(4-((5-Amino-1,3,4-oxadiazol-2-yl)methoxy)phenyl)ethanone O-(4-(trifluoromethyl)benzyl)oxime] | -29 ± 5 | -13 ± 2
C/C(=N\OCc1ccc(C(C)(F)F)cc1)c1ccc(OCc2nnn[nH]2)cc1 [Example 22, 1-(4-((1H-tetrazol-5-yl)methoxy)phenyl)ethanone O-(4-(1,1-difluoroethyl)benzyl)oxime] | -61 ± 3 | -30 ± 3
COc1cc(CO/N=C(\C)c2ccc(OCc3nnn[nH]3)cc2)ccc1C(F)(F)F [Example 25, 1-(4-((1H-tetrazol-5-yl)methoxy)phenyl)ethanone O-(3-methoxy-4-(trifluoromethyl)benzyl)oxime] | -54 ± 3 | -21 ± 2
C/C(=N\OCc1ccc(C(F)(F)F)cc1)c1ccc(OCc2nnn[nH]2)cc1O [Example 27, 1-(4-((1H-tetrazol-5-yl)methoxy)-2-hydroxyphenyl) ethanone O-(4-(trifluoromethyl)benzyl)oxime] | -50 ± 5 | -25 ± 3
C/C(=N\OCc1ccc(C(F)(F)F)cc1)c1ccc(OCc2nnnn2C)cc1O [Example 29, 1-(2-Hydroxy-4-((1-methyl-1H-tetrazol-5-yl)methoxy)phenyl)ethanone O-(4-(trifluoromethyl)benzyl)oxime] | -14 ± 6 | -5 ± 3
C/C(=N\OCc1ccc(F)cc1)c1ccc(OCc2nnn[nH]2)cc1 [Example 31, 1-(4-((1H-tetrazol-5-yl)methoxy)phenyl)ethanone O-(4-fluorobenzyl)oxime] | -26 ± 10 | -7 ± 4
C/C(=N\OCc1ccc(C(F)(F)F)cc1)c1ccc(OCc2nnn[nH]2)nc1Cl [Example 36, 1-(6-((1H-tetrazol-5-yl)methoxy)-2-chloropyridin-3-yl)ethanone O-(4-(trifluoromethyl)benzyl)oxime] | -39 ± 5 | -12 ± 3
CCn1nnc(COc2ccc(/C(C)=N/OCc3ccc(C(F)(F)F)cc3)cc2)n1 [Example 41, 1-(4-((2-Ethyl-2H-tetrazol-5-yl)methoxy)phenyl)ethanone O-(4-(trifluoromethyl)benzyl)oxime] | -36 ± 6 | -11 ± 5
CCn1nnnc1COc1ccc(/C(C)=N/OCc2ccc(C(F)(F)F)cc2)cc1 [Example 42, 1-(4-((1-Ethyl-2H-tetrazol-5-yl)methoxy)phenyl)ethanone O-(4-(trifluoromethyl)benzyl)oxime] | -22 ± 9 | 1 ± 6
C/C(=N\OCc1ccc(C(C)(F)F)cc1)c1ccc(OCc2nnn[nH]2)nc1 [Example 43, 1-(6-((1H-tetrazol-5-yl)methoxy)pyridin-3-yl) ethanone O-(4-(1,1-difluoroethyl)benzyl)oxime] | -67 ± 1 | -38 ± 2
CCn1nnc(COc2ccc(/C(C)=N/OCc3ccc(C(C)(F)F)cc3)cn2)n1 [Example 44, 1-(6-((2-Ethyl-2H-tetrazol-5-yl)methoxy)pyridin-3-yl)ethanone O-(4-(1,1-difluoroethyl)benzyl)oxime] | -50 ± 5 | -17 ± 3
CCn1nnc(COc2ccc(/C(C)=N/OCc3ccc(C(F)(F)F)cc3)cn2)n1 [Example 46, 1-(6-((2-Ethyl-2H-tetrazol-5-yl)methoxy)pyridin-3-yl)ethanone O-(4-(trifluoromethyl)benzyl)oxime] | -41 ± 4 | -20 ± 2
C/C(=N\OCc1ccc(C(F)(F)F)cc1)c1ccc(OCc2nnn(C(C)C)n2)nc1 [Example 48, 1-(6-((2-isoPropyl-2H-tetrazol-5-yl)methoxy)pyridin-3-yl)ethanone O-(4-(trifluoromethyl)benzyl)oxime] | -47 ± 7 | -17 ± 3
C/C(=N\OCc1ccc(C(F)(F)F)cc1)c1ccc(OCc2nnn(CC3CC3)n2)nc1 [Example 50, 1-(6-((2-(Cyclopropylmethyl)-2H-tetrazol-5-yl)methoxy)pyridin-3-yl)ethanone O-(4-(trifluoromethyl)benzyl)oxime] | -47 ± 4 | -18 ± 3
C/C(=N\OCc1ccc(C(F)(F)F)cc1)c1ccc(OCc2nnn(CC3CCCCC3)n2)nc1 [Example 52, 1-(6-((2-(Cyclohexylmethyl)-2H-tetrazol-5-yl)methoxy)pyridin-3-yl)ethanone O-(4-(trifluoromethyl)benzyl)oxime] | -18 ± 11 | -2 ± 5
C/C(=N\OCc1ccc(C(F)(F)F)cc1)c1ccc(OCc2nnnn2CC(=O)O)nc1 [Example 56, 2-(5-(((5-(1-(((4-(Trifluoromethyl)benzyl)oxy)imino)ethyl)pyridin-2-yl)oxy)methyl)-1H-tetrazol-1-yl)acetic acid] | -22 ± 5 | -16 ± 4
C/C(=N\OCc1ccc(C(C)(F)F)cc1)c1ccc(OCc2nnn(C(C)C)n2)nc1 [Example 58, 1-(6-((2-isoPropyl-2H-tetrazol-5-yl)methoxy)pyridin-3-yl)ethanone O-(4-(1,1-difluoroethyl)benzyl)oxime] | -36 ± 6 | -7 ± 2
C/C(=N\OCc1ccc(C(C)(F)F)cc1)c1ccc(OCc2nnn(CC3CC3)n2)nc1 [Example 60, 1-(6-((2-(Cyclopropylmethyl)-2H-tetrazol-5-yl)methoxy)pyridin-3-yl)ethanone O-(4-(1,1-difluoroethyl)benzyl)oxime] | -49 ± 3 | -17 ± 3
